In brackets after ≈: the same amount, converted by molar mass.
How the values were obtained:
Staphylococcus aureus [1] = assay: Antibacterial activity against Staphylococcus aureus ATCC 29213 measured after 24 hrs by microplate reader analysis; type: functional
Staphylococcus aureus [2] = assay: Antibacterial activity against methicillin-resistant Staphylococcus aureus N315 measured after 24 hrs by microplate reader analysis; type: functional
Staphylococcus aureus [3] = assay: Antibacterial activity against methicillin-resistant Staphylococcus aureus NCTC 10442 measured after 24 hrs by microplate reader analysis; type: functional
[4] = Hemolytic activity in rabbit erythrocytes measured after 1 hr by microplate reader analysis; type: ADME, cell-based, Oryctolagus cuniculus, Erythrocyte
Bacillus spizizenii = assay: Antibacterial activity against Bacillus subtilis ATCC 6633 measured after 24 hrs by microplate reader analysis; type: functional
Bacillus subtilis = assay: Antibacterial activity against Bacillus subtilis CMCC 63501 measured after 24 hrs by microplate reader analysis; type: functional
[5] = test system: Staphylococcus epidermidis; assay: Antibacterial activity against Staphylococcus epidermidis ATCC 12228 measured after 24 hrs by microplate reader analysis; type: functional
[6] = test system: Staphylococcus epidermidis; assay: Antibacterial activity against Staphylococcus epidermidis CMCC 26069 measured after 24 hrs by microplate reader analysis; type: functional
[7] = Selectivity ratio of MIC for Staphylococcus aureus ATCC 29213 to MIC for Bacillus subtilis ATCC 6633; type: functional
[8] = Selectivity ratio of MIC for Staphylococcus aureus ATCC 29213 to MIC for Bacillus subtilis CMCC 63501; type: functional
[9] = Selectivity ratio of MIC for Staphylococcus aureus ATCC 29213 to MIC for Staphylococcus epidermidis ATCC 12228; type: functional
[10] = Selectivity ratio of MIC for Staphylococcus aureus ATCC 29213 to MIC for Staphylococcus epidermidis CMCC 26069; type: functional
[11] = Selectivity ratio of MIC for methicillin-resistant Staphylococcus aureus N315 to MIC for Bacillus subtilis ATCC 6633; type: functional
[12] = Selectivity ratio of MIC for methicillin-resistant Staphylococcus aureus N315 to MIC for Bacillus subtilis CMCC 63501; type: functional
[13] = Selectivity ratio of MIC for methicillin-resistant Staphylococcus aureus N315 to MIC for Staphylococcus epidermidis ATCC 12228; type: functional
[14] = Selectivity ratio of MIC for methicillin-resistant Staphylococcus aureus N315 to MIC for Staphylococcus epidermidis CMCC 26069; type: functional
[15] = Selectivity ratio of MIC for methicillin-resistant Staphylococcus aureus NCTC 10442 to MIC for Bacillus subtilis ATCC 6633; type: functional
[16] = Selectivity ratio of MIC for methicillin-resistant Staphylococcus aureus NCTC 10442 to MIC for Bacillus subtilis CMCC 63501; type: functional
[17] = Selectivity ratio of MIC for methicillin-resistant Staphylococcus aureus NCTC 10442 to MIC for Staphylococcus epidermidis ATCC 12228; type: functional
[18] = Selectivity ratio of MIC for methicillin-resistant Staphylococcus aureus NCTC 10442 to MIC for Staphylococcus epidermidis CMCC 26069; type: functional
[19] = Solubility of the compound in water; type: physicochemical; settings: buffer

| Structure (SMILES) | MIC (Staphylococcus aureus [1]) | MIC (Staphylococcus aureus [2]) | MIC (Staphylococcus aureus [3]) | HC50 at 1 h [4] | further results |
| --- | --- | --- | --- | --- | --- |
| CC(C)=CCn1c2ccccc2c2c(OCC(O)CNC(=O)[C@@H](N)CCCCN)cccc21 (stereo partly drawn) | 25 mg/L (≈ 55.2 µM) | 12.5 mg/L (≈ 27.6 µM) | 25 mg/L (≈ 55.2 µM) | > 200 µg/mL | MIC (Bacillus spizizenii): 6.25 mg/L (≈ 13.8 µM); MIC (Bacillus subtilis): 6.25 mg/L (≈ 13.8 µM); MIC [5]: 6.25 mg/L (≈ 13.8 µM); MIC [6]: 6.25 mg/L (≈ 13.8 µM); Selectivity ratio [7]: 2; Selectivity ratio [8]: 2; Selectivity ratio [9]: 2; Selectivity ratio [10]: 2; Selectivity ratio [11]: 2; Selectivity ratio [12]: 2; Selectivity ratio [13]: 2; Selectivity ratio [14]: 2; Selectivity ratio [15]: 2; Selectivity ratio [16]: 2; Selectivity ratio [17]: 2; Selectivity ratio [18]: 2 |
| CC(C)=CCn1c2ccccc2c2c(OCC(O)CN3CCN(C)CC3)cccc21 (stereo not drawn) | 12.5 mg/L (≈ 30.7 µM) | 12.5 mg/L (≈ 30.7 µM) | 12.5 mg/L (≈ 30.7 µM) | 70 µg/mL |  |
| CN(C)CC(O)COc1cccc2[nH]c3ccccc3c12 (stereo not drawn) | > 50 mg/L | > 50 mg/L | > 50 mg/L | > 200 µg/mL |  |
| CC(C)=CCn1c2ccccc2c2c(OCC(O)CN3CCCCC3)cccc21 (stereo not drawn) | 6.25 mg/L (≈ 15.9 µM) | 3.12 mg/L (≈ 7.96 µM) | 3.12 mg/L (≈ 7.96 µM) | 81.8 µg/mL |  |
| CC(C)=CCn1c2ccccc2c2c(OCC(O)CN(CCO)CCO)cccc21 (stereo not drawn) | 25 mg/L (≈ 60.6 µM) | 25 mg/L (≈ 60.6 µM) | 25 mg/L (≈ 60.6 µM) | 126 µg/mL |  |
| CCCN(CCC)CC(O)COc1cccc2c1c1ccccc1n2CC=C(C)C (stereo not drawn) | > 50 mg/L | > 50 mg/L | > 50 mg/L | > 200 µg/mL |  |
| CCCCCCCn1c2ccccc2c2c(OCC3CO3)cccc21 (stereo not drawn) | > 50 mg/L | > 50 mg/L | > 50 mg/L | > 200 µg/mL |  |
| c1ccc2c(c1)[nH]c1cccc(OCC3CO3)c12 (stereo not drawn) | > 50 mg/L | > 50 mg/L | > 50 mg/L | > 200 µg/mL |  |
| CN(C)CC(O)COc1cccc2c1c1ccccc1n2C (stereo not drawn) | > 50 mg/L | > 50 mg/L | > 50 mg/L | > 200 µg/mL |  |
| CC(C)=CCn1c2ccccc2c2c(OCC(O)CN(C)C)cccc21 (stereo not drawn) | 6.25 mg/L (≈ 17.7 µM) | 3.12 mg/L (≈ 8.87 µM) | 3.12 mg/L (≈ 8.87 µM) | 119 µg/mL |  |
| CC(C)=CCn1c2ccccc2c2c(OCC3CO3)cccc21 (stereo not drawn) | > 50 mg/L | > 50 mg/L | > 50 mg/L | > 200 µg/mL |  |
| CC(C)=CCn1c2ccccc2c2c(OCC(O)CNC(=O)[C@@H](N)CCCNC(=N)N)cccc21 (stereo partly drawn) | 6.25 mg/L (≈ 13 µM) | 6.25 mg/L (≈ 13 µM) | 6.25 mg/L (≈ 13 µM) | > 200 µg/mL | MIC (Bacillus spizizenii): 3.12 mg/L (≈ 6.5 µM); MIC (Bacillus subtilis): 3.12 mg/L (≈ 6.5 µM); MIC [5]: 3.12 mg/L (≈ 6.5 µM); MIC [6]: 3.12 mg/L (≈ 6.5 µM); Selectivity ratio [7]: 2; Selectivity ratio [8]: 2; Selectivity ratio [9]: 2; Selectivity ratio [10]: 2; Selectivity ratio [11]: 2; Selectivity ratio [12]: 2; Selectivity ratio [13]: 2; Selectivity ratio [14]: 2; Selectivity ratio [15]: 2; Selectivity ratio [16]: 2; Selectivity ratio [17]: 2; Selectivity ratio [18]: 2 |
| CC(C)NCC(O)COc1cccc2[nH]c3ccccc3c12 (stereo not drawn) [CARAZOLOL] | > 50 mg/L | > 50 mg/L | > 50 mg/L | > 200 µg/mL |  |
| NCC(O)COc1cccc2[nH]c3ccccc3c12 (stereo not drawn) | > 50 mg/L | > 50 mg/L | > 50 mg/L | > 200 µg/mL |  |
| CCNCC(O)COc1cccc2c1c1ccccc1n2CC=C(C)C (stereo not drawn) | 6.25 mg/L (≈ 17.7 µM) | 3.12 mg/L (≈ 8.87 µM) | 6.25 mg/L (≈ 17.7 µM) | 156 µg/mL |  |
| CCCCCCCCCn1c2ccccc2c2c(OCC3CO3)cccc21 (stereo not drawn) | > 50 mg/L | > 50 mg/L | > 50 mg/L | > 200 µg/mL |  |
| CC(C)=CCn1c2ccccc2c2c(OCC(O)CNC(C)C)cccc21 (stereo not drawn) | 6.25 mg/L (≈ 17.1 µM) | 3.12 mg/L (≈ 8.53 µM) | 3.12 mg/L (≈ 8.53 µM) | 160 µg/mL |  |
| CCCNCC(O)COc1cccc2c1c1ccccc1n2CC=C(C)C (stereo not drawn) | 6.25 mg/L (≈ 17.1 µM) | 3.12 mg/L (≈ 8.53 µM) | 6.25 mg/L (≈ 17.1 µM) | > 200 µg/mL |  |

| Structure (SMILES) | MIC (Staphylococcus aureus [1]) | MIC (Staphylococcus aureus [2]) | MIC (Staphylococcus aureus [3]) | HC50 at 1 h [4] | further results |
| --- | --- | --- | --- | --- | --- |
| CCCCN(CCCC)CC(O)COc1cccc2c1c1ccccc1n2CC=C(C)C (stereo not drawn) | > 50 mg/L | > 50 mg/L | > 50 mg/L | > 200 µg/mL |  |
| CCCCCCCCCn1c2ccccc2c2c(OCC(O)CN(C)C)cccc21 (stereo not drawn) | 12.5 mg/L (≈ 30.4 µM) | 6.25 mg/L (≈ 15.2 µM) | 6.25 mg/L (≈ 15.2 µM) | 128 µg/mL |  |
| Cn1c2ccccc2c2c(OCC3CO3)cccc21 (stereo not drawn) | > 50 mg/L | > 50 mg/L | > 50 mg/L | > 200 µg/mL |  |
| CCCCCCCn1c2ccccc2c2c(OCC(O)CN(C)C)cccc21 (stereo not drawn) | 6.25 mg/L (≈ 16.3 µM) | 12.5 mg/L (≈ 32.7 µM) | 12.5 mg/L (≈ 32.7 µM) | 182 µg/mL |  |
| N=C(N)NCC(O)COc1cccc2[nH]c3ccccc3c12 (stereo not drawn) | 50 mg/L (≈ 168 µM) | 50 mg/L (≈ 168 µM) | 50 mg/L (≈ 168 µM) | > 200 µg/mL |  |
| CC[N+](C)(CC)CC(O)COc1cccc2c1c1ccccc1n2CC=C(C)C.[I-] (stereo not drawn) | 6.25 mg/L | 6.25 mg/L | 6.25 mg/L | 142 µg/mL |  |
| CCCCCn1c2ccccc2c2c(OCC3CO3)cccc21 (stereo not drawn) | > 50 mg/L | > 50 mg/L | > 50 mg/L | > 200 µg/mL |  |
| CCCC[N+](C)(CCCC)CC(O)COc1cccc2c1c1ccccc1n2CC=C(C)C.[I-] (stereo not drawn) | 1.56 mg/L | 1.56 mg/L | 1.56 mg/L | 61.3 µg/mL |  |
| CC(C)=CCn1c2ccccc2c2c(OCC(O)CN3CCCC3)cccc21 (stereo not drawn) | 12.5 mg/L (≈ 33 µM) | 6.25 mg/L (≈ 16.5 µM) | 6.25 mg/L (≈ 16.5 µM) | 76.2 µg/mL |  |
| CCCn1c2ccccc2c2c(OCC3CO3)cccc21 (stereo not drawn) | > 50 mg/L | > 50 mg/L | > 50 mg/L | > 200 µg/mL |  |
| CCCn1c2ccccc2c2c(OCC(O)CN(C)C)cccc21 (stereo not drawn) | 50 mg/L (≈ 153 µM) | 50 mg/L (≈ 153 µM) | 50 mg/L (≈ 153 µM) | > 200 µg/mL |  |
| CCCCCn1c2ccccc2c2c(OCC(O)CN(C)C)cccc21 (stereo not drawn) | 12.5 mg/L (≈ 35.3 µM) | 6.25 mg/L (≈ 17.6 µM) | 6.25 mg/L (≈ 17.6 µM) | 152 µg/mL |  |
| CCCCCCCCCCNCC(O)COc1cccc2c1c1ccccc1n2CC=C(C)C (stereo not drawn) | 6.25 mg/L (≈ 13.4 µM) | 1.56 mg/L (≈ 3.36 µM) | 3.12 mg/L (≈ 6.72 µM) | > 200 µg/mL | solubility [19]: Insoluble |
| CCCCCCCCNCC(O)COc1cccc2c1c1ccccc1n2CC=C(C)C (stereo not drawn) | 6.25 mg/L (≈ 14.3 µM) | 1.56 mg/L (≈ 3.57 µM) | 1.56 mg/L (≈ 3.57 µM) | > 200 µg/mL | solubility [19]: Insoluble |
| CC(C)=CCn1c2ccccc2c2c(OCC(O)CN)cccc21 (stereo not drawn) | 12.5 mg/L (≈ 38.5 µM) | 6.25 mg/L (≈ 19.3 µM) | 6.25 mg/L (≈ 19.3 µM) | > 200 µg/mL |  |
| CCCCCNCC(O)COc1cccc2c1c1ccccc1n2CC=C(C)C (stereo not drawn) | 12.5 mg/L (≈ 31.7 µM) | 6.25 mg/L (≈ 15.8 µM) | 12.5 mg/L (≈ 31.7 µM) | > 200 µg/mL |  |
| CCN(CC)CC(O)COc1cccc2c1c1ccccc1n2CC=C(C)C (stereo not drawn) | 12.5 mg/L (≈ 32.8 µM) | 12.5 mg/L (≈ 32.8 µM) | 12.5 mg/L (≈ 32.8 µM) | 88.7 µg/mL |  |
| CC(C)=CCn1c2ccccc2c2c(OCC(O)CN3CCSCC3)cccc21 (stereo not drawn) | > 50 mg/L | > 50 mg/L | > 50 mg/L | > 200 µg/mL |  |

Source: ChEMBL document CHEMBL4725344, “Development of Highly Potent Carbazole Amphiphiles as Membrane-Targeting Antimicrobials for Treating Gram-Positive Bacterial Infections” (J Med Chem, 2020)
